According to US7973213B2, “Antibiotic resistance conferred by a plant ABC transporter gene when expressed in transgenic plants” (University of Tennessee Research Foundation, priority 2005, dated 2011):

Key:
[1] = test system: transgenic tobacco events 28 and 30; test: Resistance of Atwbc19 transgenic tobacco events to other antibiotics; assay type: in vivo, Nicotiana tabacum; conditions: Atwbc19-only transgenic events 28 and 30
Escherichia coli DH5α = test: Kanamycin resistance of transformed E. coli in 96-well microtiter plates (optical density 630 nm); assay type: cell-based; conditions: E. coli transformed with pKS-ABC, IPTG 1 mM, 24 hr
Description: Escherichia coli DH5α was obtained from stock strains available within our lab. All strains were cultured on LB media. Three plasmids were used in this study. pKS-ABC contains the Atwbc19 gene under the control of the lacZ promoter in pBluescript II SK+; pKS-nptII contains the nptII gene with the lacZ promoter in pBluescript II SK+; and pKS is pBluescript II SK+ with no inserted genes as a control. The microorganisms were maintained in glycerol stocks and stored at −80° C. Working cultures were obtained by inoculating a loopful of culture into 50 ml LB broth supplemented with ampicillin (100 mg/l) and incubated at 37° C. for 24 hr.
E. coli DH5α were transformed with pKS, pKS-ABC, and pKS-nptII by freeze/thaw method (Hanahan 1983). The gram-negative […] Escherichia coli DH5α were used in all transformations. For selection of transformants, aliquots of bacteria were spread onto solidified LB medium supplemented with ampicillin (100 mg/l) and incubated at 37° C.
Isopropyl-b-D-thiogalctopyranoside (IPTG) at 1 mM was used to induce Atwbc19 expression. Each well was filled with 199 μl LB, IPTG and varying concentrations of kanamycin or gentamycin and 50 μl bacterial treatment (DH5α transformed with pKS-ABC, DH5α transformed with pKS-nptII, DH5α transformed with pKS or none). […] Optical densities were measured at 630 nm (Biorad) after incubating microtiter plates at 37° C. for 24 hr.

[2] = test system: Nicotiana tabacum cv Xanthi; test: Root growth of T1 transgenic tobacco (pS15-ABC-dKan) on media with kanamycin; assay type: in vivo; conditions: 200 mg/l kanamycin, 3 weeks
Description: Segregation analysis was performed on MS media (Murashige et al., 1962) with B5 vitamins (Gamborg et al., 1968) and 3% sucrose (MSO media) containing 200 mg/l kanamycin. T1 seeds from plants transformed with pS15-ABC-dKan were surface sterilized and germinated on the media. Root growth analysis was performed as above on vertically positioned plates where 6 seeds per plate and 6 replicate plates for each event were germinated with and without 100 and 200 mg/l kanamycin. Root length was measured after 3 weeks. All experiments were performed in a 25° C. growth cabinet under constant 40 μE irradiance.

[3] = test system: Arabidopsis thaliana insertional knockout mutants; test: Root growth of Arabidopsis insertional mutants on MSO media with kanamycin; assay type: in vivo; conditions: media with 100 mg/l kanamycin, 2 weeks
Description: Sequence-tagged insertional mutant lines for the three ABC transporters, Atwbc19 (SALK—107731), Atwbc18 (SALK—100187) and Atwbc16 (SALK—119868) were obtained from ABRC Arabidopsis knock-out library. Homozygosity was tested by PCR of genomic DNA using 3 primers (Table 1). Two of the primers are specific to the native gene and amplify a known fragment. The third primer is specific to the T-DNA. Where the T-DNA is inserted between the two gene specific primers, a smaller fragment is generated allowing the identification of insertion in the gene of interest. The fragment was sequenced to ensure that it mapped at the expected loci. Kanamycin resistance was assessed by growing the mutants on MSO media with and without 100 mg/l kanamycin. Stratified seeds were germinated on 4 Petri dishes with 6 plants for each line and placed vertically in a growth chamber at 25 degrees. Root length was measured after 2 weeks. To quantify NPTII protein levels, total protein was extracted from 100 mg of root and shoot tissue from seedlings germinated on MSO media for 2 weeks, with 2 replicate samples per line. An ELISA was performed using a kit according to the manufactures instructions (Agdia, Elkhart, Ind., USA).

For NCC[C@H](O)C(=O)N[C@@H]1C[C@H](N)[C@@H](O[C@H]2O[C@H](CN)[C@@H](O)[C@H](O)[C@H]2O)[C@H](O)[C@H]1O[C@H]1O[C@H](CO)[C@@H](O)[C@H](N)[C@H]1O [amikacin], the “resistance of plants to the antibiotic” value [1] was “no resistance”.

With O=C(N[C@H](CO)[C@H](O)c1ccc([N+](=O)[O-])cc1)C(Cl)Cl [chloramphenicol] the “resistance of plants to the antibiotic” value [1] was “no resistance”.

With NC[C@H]1O[C@H](O[C@H]2[C@H](O)[C@@H](O[C@H]3O[C@H](CO)[C@@H](O)[C@H](N)[C@H]3O)[C@H](N)C[C@@H]2N)[C@H](O)[C@@H](O)[C@@H]1O [kanamycin] the “kanamycin concentrations to which Atwbc19 confers resistance” value (Escherichia coli DH5α) was “below 12.5 mg/l”, the Root length ([2]; Atwbc19 transgenic event #28, T1 seeds) was 1.03±0.55 cm and the Root length ([2]; Atwbc19 transgenic event #30, T1 seeds) was 2.02±1.16 cm. For the same compound, the Root length ([2]; control (non-transgenic) tobacco) was 0.37±0.09 cm, the “root growth (root length)” value ([3]; line SALK—100187 (Atwbc18 mutant)) was 1.82±0.25 cm and the “root growth (root length)” value ([3]; line SALK—107731 (Atwbc19 mutant)) was 0.31±0.04 cm. The “root growth (root length)” value ([3]; line SALK—119868 (Atwbc16 mutant)) was 0.30±0.03 cm.

[H]/N=C(/N)N[C@H]1[C@H](O)[C@@H](O)[C@H](O[C@@H]2O[C@@H](C)[C@](O)(C=O)[C@H]2O[C@@H]2O[C@@H](CO)[C@H](O)[C@@H](O)[C@@H]2NC)[C@@H](N/C(N)=N\[H])[C@@H]1O [streptomycin] was tested, and the “resistance of plants to the antibiotic” value [1] was “no resistance”.

gentamycin was tested, and the “resistance of plants to the antibiotic” value [1] was “no resistance”.
